Read-outs that look alike come from different tables or passages of the source. Marks after values point to notes of the source that are not given here.
Assays:
Type in all cases: in vivo
[1] = system: Erysiphe graminis tritici; assay: Foliar fungal disease test on plants: Erysiphe graminis tritici (Egt); details: 100 ppm active ingredient foliar spray plus root drench (approx. 40 ppm a.i. in dry soil); plants inoculated 24 hours before treatment
Protocol: (§1) The compounds were tested against a variety of foliar fungal diseases of plants. The technique employed was as follows.
(§2) The plants were grown in John Innes Potting Compost (No.1 or 2) in 4 cm diameter minipots. The test compounds were formulated either by bead milling with aqueous Dispersol T or as a solution in acetone or acetone/ethanol which was diluted to the required concentration immediately before use. For the foliage diseases, the formulations (100 ppm active ingredient except where otherwise indicated) were sprayed onto the foliage and applied to the roots of the plants in the soil. The sprays were applied to maximum retention and the root drenches to a final concentration equivalent to approximately 40 ppm a.i. in dry soil. Tween 20, to give a final concentration of 0.05%, was added when the sprays were applied to cereals.
(§3) For most of the tests the compound was applied to the soil (roots) and to the foliage (by spraying) one or two days before the plant was inoculated with the disease. An exception was the test on Erysiphe graminis in which the plants were inoculated 24 hours before treatment. Foliar pathogens were applied by spray as spore suspensions onto the leaves of test plants. After inoculation, the plants were put into an appropriate environment to allow infection to proceed and then incubated until the disease was ready for assessment. The period between inoculation and assessment varied from four to fourteen days according to the disease and environment.
(§4) The disease control vas recorded by the following grading:
(§5) 3=trace-5% of disease on untreated plants
(§6) 2=6-25% of disease on untreated plants
(§7) 1=26-59% of disease on untreated plants
(§8) 0=60-100% of disease on untreated plants
Egt Erysiphe graminis tritici

Septoria nodorum = assay: Foliar fungal disease test on plants: Septoria nodorum (Sn); details: 100 ppm active ingredient foliar spray plus root drench (approx. 40 ppm a.i. in dry soil), one or two days before inoculation
Protocol: as §1, §2, §3, §4, §5, §6, §7, §8

Pyricularia oryzae = system: Pyricularia oryzae
Plasmopara viticola = assay: Foliar fungal disease test on plants: Plasmopara viticola (Pv)
Protocol: as §1, §2, §3, §4, §5, §6, §7, §8

Puccinia recondita = assay: Foliar fungal disease test on plants: Puccinia recondita (Pr)
Protocol: as §1, §2, §3, §4, §5, §6, §7, §8

Erysiphe graminis hordei = assay: Foliar fungal disease test on plants: Erysiphe graminis hordei (Egh)
Protocol: as §1, §2, §3, §4, §5, §6, §7, §8
Egh Erysiphe graminis hordei

Venturia inaequalis = assay: Foliar fungal disease test on plants: Venturia inaequalis (Vi)
Protocol: as §1, §2, §3, §4, §5, §6, §7, §8

[2] = system: Phytophthora infestans lycopersici
[3] = 100 ppm active ingredient foliar spray plus root drench (approx. 40 ppm a.i. in dry soil), one or two days before inoculation
[4] = 100 ppm active ingredient foliar spray plus root drench (approx. 40 ppm a.i. in dry soil), plants inoculated 24 hours before treatment

Row | SMILES | disease control grading, Egt (Erysiphe graminis tritici) [1] | disease control grading, Sn (Septoria nodorum) (Septoria nodorum) | disease control grading, Po (Pyricularia oryzae) (Pyricularia oryzae; [3]) | disease control grading, Pv (Plasmopara viticola) (Plasmopara viticola; [3]) | disease control grading, Pr (Puccinia recondita) (Puccinia recondita; [3]) | disease control grading, Egh (Erysiphe graminis hordei) (Erysiphe graminis hordei; [4]) | disease control grading, Vi (Venturia inaegualis) (Venturia inaequalis; [3]) | disease control grading, Pil (Phytophthora infestans lycopersici) [2, 3] | disease control grading, Pr (Puccinia recondita) (Puccinia recondita; 10 ppm foliar application only) | disease control grading, Egh (Erysiphe graminis hordei) (Erysiphe graminis hordei; 10 ppm foliar application only) | disease control grading, Po (Pyricularia oryzae) (Pyricularia oryzae; 10 ppm foliar application only) | disease control grading, Vi (Venturia inaegualis) (Venturia inaequalis; 10 ppm foliar application only) | disease control grading, Pv (Plasmopara viticola) (Plasmopara viticola; 10 ppm foliar application only) | disease control grading, Pil (Phytophthora infestans lycopersici) ([2]; 10 ppm foliar application only)
1 | CO/C=C(/C(=O)OC)c1ccccc1Oc1cc(OCc2ccncn2)ncn1 [250 of Table I] | 4 (4=no disease) | 4 (4=no disease) | 2 (2=6-25% of disease on untreated plants) | 4 (4=no disease) | – | – | – | – | – | – | – | – | – | –
2 | CO/C=C(/C(=O)OC)c1ccccc1Oc1cc(OCCc2ccccc2OC)ncn1 [365 of Table I] | – | – | 4 (4=no disease) | 4 (4=no disease) | 4 (4=no disease) | 4 (4=no disease) | 4 (4=no disease) | 4 (4=no disease) | – | – | – | – | – | –
3 | CO/C=C(/C(=O)OC)c1ccccc1Oc1cc(OCCc2ccccc2F)ncn1 [366 of Table I] | – | – | 4 (4=no disease) | 4 (4=no disease) | 4 (4=no disease) | 4 (4=no disease) | 4 (4=no disease) | 4 (4=no disease) | – | – | – | – | – | –
4 | CO/C=C(/C(=O)OC)c1ccccc1Oc1cc(NC(=S)c2ccccc2O)ncn1 [367 of Table I] | – | – | – | – | – | – | – | – | 4^a (4=no disease) | 3^a (3=trace-5% of disease on untreated plants) | 0^a (0=60-100% of disease on untreated plants) | 2^a (2=6-25% of disease on untreated plants) | 4^a (4=no disease) | 0^a (0=60-100% of disease on untreated plants)
5 | CO/C=C(/C(=O)OC)c1ccccc1Oc1cc(OCCc2ccccc2Cl)ncn1 [368 of Table I] | – | – | 3 (3=trace-5% of disease on untreated plants) | 4 (4=no disease) | 4 (4=no disease) | 4 (4=no disease) | 4 (4=no disease) | 3 (3=trace-5% of disease on untreated plants) | – | – | – | – | – | –
6 | CO/C=C(/C(=O)OC)c1ccccc1Oc1cc(OC(C#N)c2ccccc2)ncn1 (stereo not shown) [369 of Table I] | – | – | 4 (4=no disease) | 4 (4=no disease) | 4 (4=no disease) | 4 (4=no disease) | 4 (4=no disease) | 3 (3=trace-5% of disease on untreated plants) | – | – | – | – | – | –
7 | CO/C=C(/C(=O)OC)c1ccccc1Oc1cc(OCCc2c(F)cccc2F)ncn1 [370 of Table I] | – | – | 4 (4=no disease) | 4 (4=no disease) | 4 (4=no disease) | 4 (4=no disease) | 4 (4=no disease) | 4 (4=no disease) | – | – | – | – | – | –
8 | CO/C=C(/C(=O)OC)c1ccccc1Oc1cc(OC(c2ccccc2)C(F)(F)F)ncn1 (stereo not shown) [371 of Table I] | – | – | 4 (4=no disease) | 4 (4=no disease) | 4 (4=no disease) | 4 (4=no disease) | 4 (4=no disease) | 0 (0=60-100% of disease on untreated plants) | – | – | – | – | – | –
9 | CO/C=C(/C(=O)OC)c1ccccc1Oc1cc(OCCc2c(F)cccc2Cl)ncn1 [372 of Table I] | – | – | 4 (4=no disease) | 4 (4=no disease) | 4 (4=no disease) | 4 (4=no disease) | 4 (4=no disease) | 4 (4=no disease) | – | – | – | – | – | –
10 | CO/C=C(/C(=O)OC)c1ccccc1Oc1cc(OCCc2c(Cl)cccc2Cl)ncn1 [373 of Table I] | – | – | 4 (4=no disease) | 4 (4=no disease) | 4 (4=no disease) | 4 (4=no disease) | 4 (4=no disease) | 3 (3=trace-5% of disease on untreated plants) | – | – | – | – | – | –
11 | CO/C=C(/C(=O)OC)c1ccccc1Oc1cc(OCc2c(F)cccc2F)ncn1 [374 of Table I] | – | – | 4 (4=no disease) | 4 (4=no disease) | 4 (4=no disease) | 4 (4=no disease) | 4 (4=no disease) | 4 (4=no disease) | – | – | – | – | – | –
12 | CO/C=C(/C(=O)OC)c1ccccc1Oc1cc(Nc2ccccc2OC)ncn1 [380 of Table I] | – | – | 4 (4=no disease) | 4 (4=no disease) | 4 (4=no disease) | 4 (4=no disease) | 4 (4=no disease) | 3 (3=trace-5% of disease on untreated plants) | – | – | – | – | – | –
13 | CO/C=C(/C(=O)OC)c1ccccc1Oc1cc(OS(=O)(=O)c2ccccc2C#N)ncn1 [381 of Table I] | – | – | 2 (2=6-25% of disease on untreated plants) | 0 (0=60-100% of disease on untreated plants) | 2 (2=6-25% of disease on untreated plants) | 0 (0=60-100% of disease on untreated plants) | 0 (0=60-100% of disease on untreated plants) | 0 (0=60-100% of disease on untreated plants) | – | – | – | – | – | –
14 | CO/C=C(/C(=O)OC)c1ccccc1Oc1cc(OCCOc2c(F)cccc2F)ncn1 [382 of Table I] | – | – | 4 (4=no disease) | 4 (4=no disease) | 4 (4=no disease) | 4 (4=no disease) | 4 (4=no disease) | 4 (4=no disease) | – | – | – | – | – | –
15 | CO/C=C(/C(=O)OC)c1ccccc1Oc1cc(OC/C=C/c2ccccc2C#N)ncn1 [395 of Table I] | 4 (4=no disease) | 3 (3=trace-5% of disease on untreated plants) | 4 (4=no disease) | 4 (4=no disease) | 4 (4=no disease) | – | 4 (4=no disease) | – | – | – | – | – | – | –
16 | CO/C=C(/C(=O)OC)c1ccccc1Oc1cc(OCCOc2ccccc2C#N)ncn1 [396 of Table I] | 4 (4=no disease) | 4 (4=no disease) | 4 (4=no disease) | 4 (4=no disease) | 4 (4=no disease) | – | 3 (3=trace-5% of disease on untreated plants) | – | – | – | – | – | – | –
